Consider 30 molecules from patent US9447029B2, “Fluorinated arylalkylaminocarboxamide derivatives” (NEWRON PHARMACEUTICALS S.P.A., priority 2011, dated 2016).

Where a name gives a salt, the structure may show the parent alone.

As a reminder, the IC50 is the point on the concentration scale where inhibition reaches its midpoint.

For one series, the target named is CYP2D6 (Homo sapiens (Human), UniProt P10635). Nature of the series: Inhibition of Cytochrome P4502D6 (CYP2D6) using Supersomes. It is filed as in vitro ADME. Conditions: AMMC substrate, read-out: IC50 (Fluorinated derivative). The procedure: The inhibition of Cytochrome P4502D6 (CYP2D6) is assessed by performing in vitro inhibition studies using Supersomes, microsomes derived from baculovirus infected insect cells; the baculoviruses are engineered to express one or more drug metabolizing enzyme cDNAs. Supersomes catalyze the same enzymatic reactions as human liver microsome enzymes, but they contain much higher enzyme activity than other microsome sources (Crespi C. L. and Penman B. W., Advances Pharmacology, 43, 171-188 (1997); Crespi C. L. and Miller V. P., Analytical Biochemistry, 248, 188-190 (1997)).
Chain of CYP2D6 (P10635 whole entry): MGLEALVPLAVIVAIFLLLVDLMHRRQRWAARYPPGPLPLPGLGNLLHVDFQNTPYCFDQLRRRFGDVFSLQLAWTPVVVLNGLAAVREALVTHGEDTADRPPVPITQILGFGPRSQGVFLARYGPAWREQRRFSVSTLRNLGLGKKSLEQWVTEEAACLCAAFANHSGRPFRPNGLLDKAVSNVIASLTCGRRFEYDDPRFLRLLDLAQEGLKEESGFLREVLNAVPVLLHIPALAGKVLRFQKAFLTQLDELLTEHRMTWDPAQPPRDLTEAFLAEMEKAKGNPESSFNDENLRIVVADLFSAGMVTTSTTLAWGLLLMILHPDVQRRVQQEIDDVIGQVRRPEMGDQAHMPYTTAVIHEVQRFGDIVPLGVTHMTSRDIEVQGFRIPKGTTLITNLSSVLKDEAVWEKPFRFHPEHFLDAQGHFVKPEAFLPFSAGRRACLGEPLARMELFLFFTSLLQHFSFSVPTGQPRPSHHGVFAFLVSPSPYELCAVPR
Kits with Supersomes are Supplied by GENTEST (MA, USA).
Test compound is dissolved in DMSO 500× the highest final concentration desired in the IC50 assay. 30 ml of deionized water is pre-warmed to 37° C. and all kit components are placed on ice. For each well of column 1, 149.4 μL of NADPH-Cofactor Mix, (187.5 μl of Cofactors, 150 μl of G6PDH, 100 μl of Control Protein and 14.56 ml of 37° C. water) are added.
In each well from Column 2 to 12, 100 μl of Cofactor/DMSO mix (40 μL DMSO in 9.96 ml of NADPH-Cofactor Mix) are added. To each well of column 1, 0.6 μl of test compound or positive control are added. 50 μl from each well of column 1 are serially diluted to column 8. The extra 50 μl from column 8 are discarded. The plate is covered and pre-incubated at 37° C. for 10 minutes.
Preparation of enzyme/substrate mix: 7.92 ml of pre-warmed deionized water, 75 μl of enzyme, 3 μl of 10 mM AMMC and 2 ml of pre-warmed buffer are mixed.
After the pre-incubation time (10′), 100 μl of enzyme/substrate mix to each well from column 1 to 10 are added. The plate is incubated at 37° C. for 30 minutes. After this time, 75 μl of Stop Reagent to each well are added. For blank controls, 100 μl of enzyme/substrate mix are added to columns 11 and 12.
Plates are read at the Victor plate reader (Perkin Elmer, MA—USA) at 390 nm excitation and 460 nm emission wavelengths.
On to `O=C(CNCC(F)(F)c1cccc(OCCCC(F)(F)F)c1)N1CCOCC1` [Example 1-21, 2-{2,2-Difluoro-2-[3-(4,4,4-trifluorobutoxy)-phenyl]-ethylamino}-1-(morpholin-4-yl)-ethanone, hydrochloride], for which the IC50 was above 40000 nM. Still for that read-out and setting: the value for `CCCCOc1cccc(C(F)(F)CNC(C)C(=O)N(C)C)c1` (centres unmarked) [Example 2-1, 2-[2,2-Difluoro-2-(3-butoxyphenyl)-ethylamino]-N,N-dimethyl-propanamide, hydrochloride] was above 40000 nM.

Still in this series, the particulars now being: AMMC substrate, reference standards of the closest prior art, read-out: IC50 (Corresponding de-fluorinated derivative).
For the molecule `CCCCOc1cccc(CCNCC(=O)N(CC)CC)c1` [2-[2-(3-Butoxyphenyl)-ethylamino]-N,N-diethyl-acetamide, hydrochloride], the IC50 amounted to 2500 nM.

For `O=C(CNCCc1cccc(OCCCC(F)(F)F)c1)N1CCOCC1` [2-{2-[3-(4,4,4-trifluorobutoxy)phenyl]-ethylamino}-1-(morpholin-4-yl)-ethanone, hydrochloride], the IC50 is 1800 nM. For the molecule `CCCCOc1cccc(CCN(CCCOC)CC(=O)N(C)C)c1` [2-{[2-(3-Butoxyphenyl)-ethyl]-(3-methoxypropyl)-amino}-N,N-dimethyl-acetamide, hydrochloride], the IC50 is 7300 nM. Same read-out and setting: to `CCCCOc1cccc(CCN(CCOC)CC(=O)N(C)C)c1` [2-{[2-(3-Butoxyphenyl)-ethyl]-(2-methoxyethyl)-amino}-N,N-dimethyl-acetamide, hydrochloride] belongs 3400 nM. The same measure, in the same setting: to `CCCCCOc1cccc(CCNCC(=O)N(C)C)c1` [2-[2-(3-Pentyloxyphenyl)-ethylamino]-N,N-dimethyl-acetamide, hydrochloride] belongs 3500 nM.

With `CCCCCCOc1cccc(CCNCC(=O)N(C)C)c1` [2-[2-(3-Hexyloxyphenyl)-ethylamino]-N,N-dimethyl-acetamide, hydrochloride], the IC50 was determined as 900 nM. For the molecule `CCCCOc1cccc(CCNCC(=O)N(C)C)c1` [2-[2-(3-Butoxyphenyl)-ethylamino]-N,N-dimethyl-acetamide, hydrochloride], the IC50 was determined as 5800 nM. Same read-out and setting: the value for `CCCCOc1cccc(CCNCC(=O)N(CCC)CCC)c1` [2-[2-(3-Butoxyphenyl)-ethylamino]-N,N-dipropyl-acetamide, hydrochloride] was 700 nM. Same read-out and setting: the value for `CCCCOc1cccc(CCNCC(=O)N2CCCCC2)c1` [2-[2-(3-Butoxyphenyl)-ethylamino]-1-(piperidin-1-yl)-ethanone, hydrochloride] was 1100 nM; that for `CCCCOc1cccc(CCNCC(=O)N2CCCC2)c1` [2-[2-(3-Butoxyphenyl)-ethylamino]-1-(pyrrolidin-1-yl)-ethanone, hydrochloride] was 3000 nM. Consider `O=C(CNCCc1cccc(OCCCC(F)(F)F)c1)N1CCCC1` [2-{2-[3-(4,4,4-trifluorobutoxy)-phenyl]-ethylamino}-1-(pyrrolidin-1-yl)-ethanone, hydrochloride], for which the IC50 is 5000 nM. Still for that read-out and setting: the value for `CN(C)C(=O)CNCCc1cccc(OCc2ccccc2)c1` [2-[2-(3-Benzyloxyphenyl)-ethylamino]-N,N-dimethyl-acetamide, hydrochloride] was 10600 nM. With `CCCCOc1cccc(CCNC(C)C(=O)N(C)C)c1` (centres unmarked) [2-[2-(3-Butoxyphenyl)-ethylamino]-N,N-dimethyl-propanamide, hydrochloride], the IC50 amounted to 5800 nM.

A further series relates to TTXs sodium channels (ND7/23 cells). Nature of the series: TTXs-sodium channel influx assay (fluorescence, membrane potential kit). In kind it is cell-based, rat. The following applies: veratridine 100 μM. The procedure:
ND7/23 rat dorsal root ganglion-derived cell line endogenously expresses a mixed population of TTXs sodium channels (such as Nav1.3, Nav1.2, Nav1.1, Nav1.6). These cells lack of TTXr sodium channels as shown by the absence of their respective transcripts. ND7/23 cells are grown in Dulbecco's Modified Eagle Medium (DMEM, Invitrogen, CA—USA) supplemented with 10% Foetal Bovine Serum (FBS, Invitrogen, CA—USA) and 1 mM sodium piruvate. The cells are seeded at 50,000 cells/well on 96 poly-L-lysine-coated plates and further incubated for 18-24 h before use.
The Membrane Potential Kit Assay (Molecular Devices, CA—USA), based on a negatively charged fluorescent dye able to monitor changes in membrane potential caused by the sodium influx due to the channel opening, is used for the assay.
Cells are incubated with the dye loading for 30 minutes at 25° C. Then, 100 nM of the toxin Anemonia sulcata (used as enhancer of the channel opener response) alone or in the presence of TTX (as reference standard) or test compound are added for further 15 minutes.
The fluorescence (excitation: 530 nm, emission: 565 nm wavelength) is measured before and after (40-45 s) the automated injection of the sodium channel opener veratridine (100 μM) using a Victor plate reader (Perkin Elmer, MA—USA).
The inhibition curves are calculated from 5 concentrations, each in triplicate, and the IC50 determined using a linear regression analysis.
The results, obtained with some compounds which are representative of the entire class of compounds of the invention are reported in Table 1.
In turn, `CCCCOc1cccc(C(F)(F)CNCC(=O)N2CCN(C)CC2)c1` [Example 1-26, 2-[2,2-Difluoro-2-(3-butoxyphenyl)-ethylamino]-1-(4-methylpiperazin-1-yl)-ethanone, hydrochloride] showed an IC50 of 23200 nM. Turning to `O=C(CNCC(F)(F)c1cccc(OCCCC(F)(F)F)c1)N1CCOCC1` [Example 1-21, 2-{2,2-Difluoro-2-[3-(4,4,4-trifluorobutoxy)-phenyl]-ethylamino}-1-(morpholin-4-yl)-ethanone, hydrochloride], the IC50 turned out to be 7200 nM. Still for that read-out and setting: the value for `CCCCOc1cccc(C(F)(F)CNC(C)C(=O)N(C)C)c1` (centres unmarked) [Example 2-1, 2-[2,2-Difluoro-2-(3-butoxyphenyl)-ethylamino]-N,N-dimethyl-propanamide, hydrochloride] was 20000 nM; that for `CCCCOc1cccc(C(F)(F)CNCC(=O)N2CCCCC2)c1` [Example 1-29, 2-[2,2-Difluoro-2-(3-butoxyphenyl)-ethylamino]-1-(piperidin-1-yl)-ethanone, hydrochloride] was 1800 nM. Consider `CCCCOc1cccc(C(F)(F)CNC(COC)C(=O)N(C)C)c1` (centres unmarked) [Example 2-2, 2-[2,2-Difluoro-2-(3-butoxyphenyl)-ethylamino]-3-methoxy-N,N-dimethyl-propanamide], for which the IC50 was found to be 6200 nM. On the same count and under the same terms, the value for `CN(C)C(=O)CNCC(F)(F)c1cccc(OCCCC(F)(F)F)c1` [Example 1-7, 2-{2,2-Difluoro-2-[3-(4,4,4-trifluorobutoxy)-phenyl]-ethylamino}-N,N-dimethyl-acetamide, hydrochloride] was 3600 nM; that for `O=C(CNCC(F)(F)c1cccc(OCCCC(F)(F)F)c1)N1CCCC1` [Example 1-18, 2-{2,2-Difluoro-2-[3-(4,4,4-trifluorobutoxy)-phenyl]-ethylamino}-1-(pyrrolidin-1-yl)-ethanone] was 950 nM; that for `CCCCOc1cccc(C(F)(F)CN(C)CC(=O)N(C)C)c1` [Example 3-1, 2-{[2,2-Difluoro-2-(3-butoxyphenyl)-ethyl]-methylamino}-N,N-dimethyl-acetamide, hydrochloride] was 2300 nM. `CCCCOc1cccc(C(F)CNCC(=O)N(C)C)c1` (centres unmarked) [Example 4-1, 2-[2-Fluoro-2-(3-butoxyphenyl)-ethylamino]-N,N-dimethyl-acetamide, hydrochloride] returned an IC50 of 1500 nM. On to `CCCCOc1cccc(C(F)(F)CNCC(=O)N2CCC2)c1` [Example 1-42, 2-[2,2-Difluoro-2-(3-butoxyphenyl)-ethylamino)-1-(azetidin-1-yl)-ethanone, hydrochloride], for which the IC50 was 5000 nM. Same read-out and setting: to `CCCCCCOc1cccc(C(F)(F)CNCC(=O)N(C)C)c1` [Example 1-6, 2-[2,2-Difluoro-2-(3-hexyloxyphenyl)-ethylamino]-N,N-dimethyl-acetamide, hydrochloride] belongs 140 nM; to `CCCCOc1cccc(C(F)(F)CNCC(=O)N(C)C)c1` [Example 1-1, 2-[2,2-Difluoro-2-(3-butoxyphenyl)-ethylamino]-N,N-dimethyl-acetamide, hydrochloride], 1000 nM. Same read-out and setting: to `CN(C)C(=O)CNCC(F)(F)c1cccc(OCc2ccccc2)c1` [Example 1-14, 2-[2,2-Difluoro-2-(3-benzyloxyphenyl)-ethylamino]-N,N-dimethyl-acetamide, hydrochloride] belongs 1200 nM; to `CCCCOc1cccc(C(F)(F)CNCC(=O)N2CCCC2)c1` [Example 1-15, 2-[2,2-Difluoro-2-(3-butoxyphenyl)-ethylamino]-1-(pyrrolidin-1-yl)-ethanone, hydrochloride], 1100 nM. On the same count and under the same terms, the value for `CN1CCN(C(=O)CNCC(F)(F)c2cccc(OCCCC(F)(F)F)c2)CC1` [Example 1-28, 2-{2,2-Difluoro-2-[3-(4,4,4-trifluorobutoxy)-phenyl)-ethylamino}-1-(4-methylpiperazin-1-yl)-ethanone, hydrochloride] was 3200 nM.

Take `CCCCOc1cccc(C(F)(F)CNCC(=O)N(CC)CC)c1` [Example 1-32, 2-[2,2-Difluoro-2-(3-butoxyphenyl)-ethylamino]-N,N-diethyl-acetamide, hydrochloride]: the IC50 was determined as 2800 nM. Same read-out and setting: the value for `CCCCOc1cccc(C(F)(F)CN(CCOC)CC(=O)N(C)C)c1` [Example 3-3, 2-{[2,2-Difluoro-2-(3-butoxyphenyl)-ethyl]-(2-methoxyethyl)-amino}-N,N-dimethyl-acetamide, hydrochloride] was 1400 nM.
